According to patent publication US20190358196A1, “PI 4-KINASE INHIBITOR AS A THERAPEUTIC FOR VIRAL HEPATITIS, CANCER, MALARIA. AUTOIMMUNE DISORDERS AND INFLAMMATION, AND A RADIOSENSITIZER AND IMMUNOSUPPRESSANT” (priority 2016, published 2019):

Key:
[1] = biological target: PI4Ka (Homo sapiens, UniProt P42356); test: HotSpot lipid kinase inhibition assay
[2] = test system: cell culture-derived HCV (HCVcc)

Sequence of PI4Ka (P42356 whole entry): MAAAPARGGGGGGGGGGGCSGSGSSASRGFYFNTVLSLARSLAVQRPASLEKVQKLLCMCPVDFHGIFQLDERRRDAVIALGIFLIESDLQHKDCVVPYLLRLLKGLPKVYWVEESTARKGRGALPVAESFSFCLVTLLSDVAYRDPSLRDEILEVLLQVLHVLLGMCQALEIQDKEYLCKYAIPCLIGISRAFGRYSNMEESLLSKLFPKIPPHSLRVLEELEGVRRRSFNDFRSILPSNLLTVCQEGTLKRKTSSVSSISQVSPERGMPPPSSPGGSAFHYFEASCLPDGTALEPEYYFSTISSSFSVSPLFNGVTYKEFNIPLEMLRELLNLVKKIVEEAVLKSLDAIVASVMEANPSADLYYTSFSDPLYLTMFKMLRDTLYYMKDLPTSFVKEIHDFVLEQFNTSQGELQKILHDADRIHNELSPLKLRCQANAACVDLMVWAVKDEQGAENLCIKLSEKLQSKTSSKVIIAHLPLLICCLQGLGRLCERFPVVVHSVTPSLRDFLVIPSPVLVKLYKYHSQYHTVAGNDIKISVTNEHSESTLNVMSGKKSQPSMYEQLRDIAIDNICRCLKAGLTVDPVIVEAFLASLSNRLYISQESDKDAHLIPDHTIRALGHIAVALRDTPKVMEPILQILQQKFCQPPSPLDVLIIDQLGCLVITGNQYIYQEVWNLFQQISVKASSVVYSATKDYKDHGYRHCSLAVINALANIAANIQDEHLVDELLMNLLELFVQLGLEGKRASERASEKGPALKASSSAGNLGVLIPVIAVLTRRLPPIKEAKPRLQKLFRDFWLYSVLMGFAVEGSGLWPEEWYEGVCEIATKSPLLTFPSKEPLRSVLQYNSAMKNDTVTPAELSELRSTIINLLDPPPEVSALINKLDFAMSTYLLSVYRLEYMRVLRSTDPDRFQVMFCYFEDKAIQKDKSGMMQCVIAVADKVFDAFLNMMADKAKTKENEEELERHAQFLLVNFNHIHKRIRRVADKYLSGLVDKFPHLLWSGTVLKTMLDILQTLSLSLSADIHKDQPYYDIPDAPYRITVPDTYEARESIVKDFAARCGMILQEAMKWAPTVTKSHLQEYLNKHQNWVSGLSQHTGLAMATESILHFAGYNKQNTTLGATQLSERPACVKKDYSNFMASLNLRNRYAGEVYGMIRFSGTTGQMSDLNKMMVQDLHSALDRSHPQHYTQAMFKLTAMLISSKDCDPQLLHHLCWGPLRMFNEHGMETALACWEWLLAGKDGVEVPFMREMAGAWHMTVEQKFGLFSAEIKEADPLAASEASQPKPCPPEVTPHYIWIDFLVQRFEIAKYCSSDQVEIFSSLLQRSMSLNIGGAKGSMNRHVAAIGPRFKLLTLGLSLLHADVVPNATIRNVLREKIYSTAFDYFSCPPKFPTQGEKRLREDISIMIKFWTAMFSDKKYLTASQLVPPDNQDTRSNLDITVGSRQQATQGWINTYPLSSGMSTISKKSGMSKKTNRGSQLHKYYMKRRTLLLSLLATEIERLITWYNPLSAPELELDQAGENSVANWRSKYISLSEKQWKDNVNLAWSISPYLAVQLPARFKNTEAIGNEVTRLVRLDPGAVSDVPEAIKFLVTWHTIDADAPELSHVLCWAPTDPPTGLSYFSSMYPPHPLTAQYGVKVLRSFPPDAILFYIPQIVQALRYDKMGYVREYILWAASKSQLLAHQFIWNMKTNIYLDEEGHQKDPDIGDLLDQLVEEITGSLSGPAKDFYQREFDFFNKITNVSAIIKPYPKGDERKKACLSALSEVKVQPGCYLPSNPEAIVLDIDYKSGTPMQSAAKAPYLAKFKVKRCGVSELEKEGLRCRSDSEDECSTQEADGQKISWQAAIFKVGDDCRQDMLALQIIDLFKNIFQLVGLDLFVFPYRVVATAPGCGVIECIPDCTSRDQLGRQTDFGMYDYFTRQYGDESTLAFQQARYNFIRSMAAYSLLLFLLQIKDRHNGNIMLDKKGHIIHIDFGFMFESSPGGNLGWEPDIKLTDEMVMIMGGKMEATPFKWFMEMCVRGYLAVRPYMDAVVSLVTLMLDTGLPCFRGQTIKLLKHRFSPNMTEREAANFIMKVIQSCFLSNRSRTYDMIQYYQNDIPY

Oc1cccc(-c2nc(N3CCOCC3)c3oc4ncccc4c3n2)c1 [PI-103]
IC50 [1]: 322 nM

Human interferon alpha-2b [rIFNa-2b]
SI (CC50/EC50) [2]: >15.9
